Experimental data published in PMC10771525 (Communications Biology, 2024).

Tests used:
[1] = biological target: LTB4R (Homo sapiens, UniProt Q15722); test: GPCR panel (control), Arrestin, CHO-K1; assay type: cell-based; conditions: reference agonist
[2] = biological target: HTR5A (Homo sapiens, UniProt P47898); test: GPCR panel (control), Arrestin, U2OS; assay type: cell-based; conditions: reference agonist
[3] = biological target: HTR1B (Homo sapiens, UniProt P28222); test: GPCR panel (control), Arrestin, U2OS; assay type: cell-based; conditions: reference agonist
HTR1B, sequence (P28222 whole entry): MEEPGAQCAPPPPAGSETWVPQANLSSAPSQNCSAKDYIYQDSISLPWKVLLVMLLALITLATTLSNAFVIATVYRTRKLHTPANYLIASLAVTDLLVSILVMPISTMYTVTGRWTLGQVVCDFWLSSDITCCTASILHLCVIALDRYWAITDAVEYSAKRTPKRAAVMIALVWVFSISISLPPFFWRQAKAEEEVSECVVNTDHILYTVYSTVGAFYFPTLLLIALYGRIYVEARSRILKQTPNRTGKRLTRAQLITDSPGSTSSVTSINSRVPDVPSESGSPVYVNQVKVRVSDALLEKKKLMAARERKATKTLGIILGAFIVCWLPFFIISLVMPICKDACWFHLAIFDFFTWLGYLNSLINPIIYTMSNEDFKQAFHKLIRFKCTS

[4] = biological target: HTR2A (Homo sapiens, UniProt P28223); conditions: reference agonist, U2OS, Arrestin
HTR2A, sequence (P28223 whole entry): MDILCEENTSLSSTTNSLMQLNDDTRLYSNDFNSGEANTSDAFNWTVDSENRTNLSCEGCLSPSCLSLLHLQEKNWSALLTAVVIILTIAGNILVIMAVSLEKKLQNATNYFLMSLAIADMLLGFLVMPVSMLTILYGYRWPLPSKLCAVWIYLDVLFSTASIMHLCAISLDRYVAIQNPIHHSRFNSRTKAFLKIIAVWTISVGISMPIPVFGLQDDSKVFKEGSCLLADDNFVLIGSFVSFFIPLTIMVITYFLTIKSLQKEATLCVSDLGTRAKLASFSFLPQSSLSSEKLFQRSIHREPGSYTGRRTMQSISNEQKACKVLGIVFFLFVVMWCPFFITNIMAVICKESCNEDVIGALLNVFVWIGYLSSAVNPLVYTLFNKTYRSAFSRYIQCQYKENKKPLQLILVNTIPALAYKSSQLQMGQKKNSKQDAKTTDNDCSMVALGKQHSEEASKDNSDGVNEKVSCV

[5] = biological target: HTR1F (Homo sapiens, UniProt P30939); test: GPCR panel (control), Arrestin, U2OS; assay type: cell-based; conditions: reference agonist
HTR1F, sequence (P30939 whole entry): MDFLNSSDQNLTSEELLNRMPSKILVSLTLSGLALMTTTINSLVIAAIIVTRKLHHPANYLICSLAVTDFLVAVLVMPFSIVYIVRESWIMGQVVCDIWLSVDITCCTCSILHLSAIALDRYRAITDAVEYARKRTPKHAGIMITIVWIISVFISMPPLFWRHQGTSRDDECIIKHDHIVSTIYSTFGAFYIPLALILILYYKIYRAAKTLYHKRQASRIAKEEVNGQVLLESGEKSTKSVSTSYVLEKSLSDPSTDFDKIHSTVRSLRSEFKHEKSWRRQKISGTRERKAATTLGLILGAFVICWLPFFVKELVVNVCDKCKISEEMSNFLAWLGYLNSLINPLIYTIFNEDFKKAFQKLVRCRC

[6] = biological target: HTR1E (Homo sapiens, UniProt P28566); test: GPCR panel (control), Arrestin, U2OS; assay type: cell-based; conditions: reference agonist
HTR1E, sequence (P28566 whole entry): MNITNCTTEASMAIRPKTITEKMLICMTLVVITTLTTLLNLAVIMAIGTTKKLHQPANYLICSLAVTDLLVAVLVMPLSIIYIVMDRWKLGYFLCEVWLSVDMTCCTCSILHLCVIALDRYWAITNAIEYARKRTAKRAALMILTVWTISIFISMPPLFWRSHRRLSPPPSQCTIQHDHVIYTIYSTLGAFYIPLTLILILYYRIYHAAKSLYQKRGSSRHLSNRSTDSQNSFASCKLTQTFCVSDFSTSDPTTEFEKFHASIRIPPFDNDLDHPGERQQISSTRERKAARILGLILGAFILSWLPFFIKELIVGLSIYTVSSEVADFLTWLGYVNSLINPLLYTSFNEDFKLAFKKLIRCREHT

[7] = biological target: AGTR1 (Homo sapiens, UniProt P30556); conditions: reference agonist, AGTR1, CHO-K1, Arrestin
AGTR1, sequence (P30556 whole entry): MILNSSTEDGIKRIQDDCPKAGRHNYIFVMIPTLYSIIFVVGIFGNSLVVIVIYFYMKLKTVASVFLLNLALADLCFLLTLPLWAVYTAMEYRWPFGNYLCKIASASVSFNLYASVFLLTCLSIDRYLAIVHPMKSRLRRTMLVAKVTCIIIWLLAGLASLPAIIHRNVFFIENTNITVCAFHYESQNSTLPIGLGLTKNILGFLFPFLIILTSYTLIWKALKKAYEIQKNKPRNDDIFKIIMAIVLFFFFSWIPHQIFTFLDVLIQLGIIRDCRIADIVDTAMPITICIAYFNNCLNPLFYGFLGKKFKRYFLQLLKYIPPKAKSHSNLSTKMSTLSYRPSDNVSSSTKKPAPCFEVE

[8] = test system: MRGPRX2; conditions: MRGPRX2 recombinantly expressed in HEK293 cells; read-out: EC50, calcium mobilization assays; cited from earlier work
Description: Other CXCLs contain sequences that are similar to the proposed pentapeptidic motif, but are either deeply buried in the typical 3D structure of the chemokine, or located near acidic amino acids, that are not tolerated by the negatively charged binding pocket of MRGPRX2 (see sequence alignment in Supplementary Fig. 4 for further information). […] No ...

[9] = biological target: T1, MRGPRX2 (Homo sapiens, UniProt Q96LB1); test: GPCR panel (control), Arrestin, CHO-K1; assay type: cell-based; conditions: reference agonist
T1 sequence (Q96LB1 1-330): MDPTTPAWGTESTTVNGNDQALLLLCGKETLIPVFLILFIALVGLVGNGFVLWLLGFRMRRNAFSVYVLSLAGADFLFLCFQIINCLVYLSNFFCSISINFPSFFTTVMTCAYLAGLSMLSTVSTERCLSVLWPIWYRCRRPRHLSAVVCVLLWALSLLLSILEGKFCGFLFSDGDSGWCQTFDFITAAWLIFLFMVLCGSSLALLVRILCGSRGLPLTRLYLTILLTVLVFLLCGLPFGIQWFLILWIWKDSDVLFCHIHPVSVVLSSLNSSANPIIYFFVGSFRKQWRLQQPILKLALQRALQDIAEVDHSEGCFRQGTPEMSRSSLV

[10] = biological target: MC3R (Homo sapiens, UniProt P41968); conditions: reference agonist, CHO-K1, Arrestin
MC3R, sequence (P41968 whole entry): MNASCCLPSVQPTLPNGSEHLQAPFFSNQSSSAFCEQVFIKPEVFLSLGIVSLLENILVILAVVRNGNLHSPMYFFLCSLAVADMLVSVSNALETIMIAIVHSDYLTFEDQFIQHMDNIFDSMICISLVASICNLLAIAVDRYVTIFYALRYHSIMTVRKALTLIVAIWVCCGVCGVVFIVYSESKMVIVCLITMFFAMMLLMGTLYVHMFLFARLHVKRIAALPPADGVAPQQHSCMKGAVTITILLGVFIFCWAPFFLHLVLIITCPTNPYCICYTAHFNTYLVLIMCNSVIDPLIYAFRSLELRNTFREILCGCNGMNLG

[11] = biological target: MC5R (Homo sapiens, UniProt P33032); conditions: reference agonist, CHO-K1, Arrestin
MC5R, sequence (P33032 whole entry): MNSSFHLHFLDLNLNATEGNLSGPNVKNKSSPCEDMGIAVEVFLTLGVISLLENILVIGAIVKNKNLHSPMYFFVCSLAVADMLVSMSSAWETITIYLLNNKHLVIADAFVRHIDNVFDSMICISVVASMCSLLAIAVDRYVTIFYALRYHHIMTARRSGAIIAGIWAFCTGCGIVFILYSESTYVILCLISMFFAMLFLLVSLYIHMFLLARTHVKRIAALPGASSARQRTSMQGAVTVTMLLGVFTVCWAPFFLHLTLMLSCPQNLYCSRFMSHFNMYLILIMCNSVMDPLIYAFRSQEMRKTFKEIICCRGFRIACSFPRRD

[12] = biological target: MC1R (Homo sapiens, UniProt Q01726); conditions: reference agonist, CHO-K1, Arrestin
MC1R, sequence (Q01726 whole entry): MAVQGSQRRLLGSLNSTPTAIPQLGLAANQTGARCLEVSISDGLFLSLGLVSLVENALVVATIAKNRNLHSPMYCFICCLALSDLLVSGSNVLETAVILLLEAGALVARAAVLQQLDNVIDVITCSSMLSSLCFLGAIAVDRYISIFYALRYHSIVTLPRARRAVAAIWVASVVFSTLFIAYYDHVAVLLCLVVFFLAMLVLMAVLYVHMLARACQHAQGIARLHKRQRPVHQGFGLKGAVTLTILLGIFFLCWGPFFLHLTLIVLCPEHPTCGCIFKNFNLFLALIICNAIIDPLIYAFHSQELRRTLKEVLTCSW

[13] = biological target: T2, MLNR (Homo sapiens, UniProt O43193); test: GPCR panel (control), Arrestin, CHO-K1; assay type: cell-based; conditions: reference agonist
T2 construct: expressed in transfected cells; host or cells: CHO-K1
T2 sequence (O43193 whole entry): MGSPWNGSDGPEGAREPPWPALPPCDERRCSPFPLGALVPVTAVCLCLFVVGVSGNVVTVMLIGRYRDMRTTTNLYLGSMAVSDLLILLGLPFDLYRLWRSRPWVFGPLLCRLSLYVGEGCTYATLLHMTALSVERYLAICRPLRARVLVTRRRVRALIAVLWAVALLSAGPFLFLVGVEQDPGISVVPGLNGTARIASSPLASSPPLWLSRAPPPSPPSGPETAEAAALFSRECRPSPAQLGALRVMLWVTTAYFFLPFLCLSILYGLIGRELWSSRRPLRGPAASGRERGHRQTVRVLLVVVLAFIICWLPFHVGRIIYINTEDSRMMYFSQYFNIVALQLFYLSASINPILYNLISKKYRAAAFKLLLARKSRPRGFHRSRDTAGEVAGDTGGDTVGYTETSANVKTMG

[14] = biological target: T3, NMU1R (Homo sapiens, UniProt Q9HB89); test: GPCR panel (control), Arrestin, U2OS; assay type: cell-based; conditions: reference agonist
T3 construct: expressed in transfected cells; host or cells: U2OS
T3 sequence (Q9HB89 whole entry): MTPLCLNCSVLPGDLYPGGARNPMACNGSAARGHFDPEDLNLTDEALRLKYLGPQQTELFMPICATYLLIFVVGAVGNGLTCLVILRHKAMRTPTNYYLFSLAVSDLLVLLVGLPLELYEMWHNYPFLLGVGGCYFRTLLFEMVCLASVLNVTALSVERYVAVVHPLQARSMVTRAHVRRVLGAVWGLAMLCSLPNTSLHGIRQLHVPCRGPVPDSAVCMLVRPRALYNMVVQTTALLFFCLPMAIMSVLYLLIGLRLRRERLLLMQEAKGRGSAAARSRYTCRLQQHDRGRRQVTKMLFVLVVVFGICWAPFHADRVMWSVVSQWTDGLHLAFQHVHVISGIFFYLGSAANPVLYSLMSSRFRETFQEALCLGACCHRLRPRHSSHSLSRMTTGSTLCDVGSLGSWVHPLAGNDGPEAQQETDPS

[15] = biological target: T4, mouse MRGPRB2 in 1321N1 astrocytoma cells (mouse) (UniProt Q3KNA1)
T4 sequence: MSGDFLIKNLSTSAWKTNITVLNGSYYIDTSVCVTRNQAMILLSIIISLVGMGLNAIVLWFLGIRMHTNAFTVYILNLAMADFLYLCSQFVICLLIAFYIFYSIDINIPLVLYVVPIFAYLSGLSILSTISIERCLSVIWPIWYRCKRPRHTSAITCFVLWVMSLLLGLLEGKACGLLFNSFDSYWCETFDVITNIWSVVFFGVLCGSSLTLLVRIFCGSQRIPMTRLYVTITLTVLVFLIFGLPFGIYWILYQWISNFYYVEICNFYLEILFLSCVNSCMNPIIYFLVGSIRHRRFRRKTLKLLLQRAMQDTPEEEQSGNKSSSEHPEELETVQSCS

[16] = biological target: MRGPRX2 fused to ProLink (PK), in CHO β-arrestin cells (human) (UniProt Q96LB1)
[17] = biological target: T4, mouse MRGPRB2 in 1321N1 astrocytoma cells (mouse); remark: listed apart in the source
[18] = biological target: MRGPRX2 in LN229 glioblastoma cells (human) (UniProt Q96LB1)
[19] = biological target: MRGPRX2 in CHEM-1 cells (human) (UniProt Q96LB1)
[20] = biological target: T1, MRGPRX2; test: β-arrestin recruitment assay (enzyme complementation), β-arrestin-CHO cells recombinantly expressing MRGPRX2; assay type: cell-based; conditions: 90 min incubation, chemiluminescence, means ± SD of 3 to 5 independent experiments in duplicates, read-out: EC50 ± SD, β-arrestin assays
[21] = biological target: T5, MRGPRB2 (Mus musculus, UniProt Q3KNA1); test: calcium mobilization assay, 1321N1 astrocytoma cells stably expressing MRGPRB2; assay type: cell-based
T5 construct: expressed in transfected cells; host or cells: 1321N1 astrocytoma cells (lentiviral, pLVX MRGPRB2-IRES-mCherry)
T5 sequence (Q3KNA1 1-338): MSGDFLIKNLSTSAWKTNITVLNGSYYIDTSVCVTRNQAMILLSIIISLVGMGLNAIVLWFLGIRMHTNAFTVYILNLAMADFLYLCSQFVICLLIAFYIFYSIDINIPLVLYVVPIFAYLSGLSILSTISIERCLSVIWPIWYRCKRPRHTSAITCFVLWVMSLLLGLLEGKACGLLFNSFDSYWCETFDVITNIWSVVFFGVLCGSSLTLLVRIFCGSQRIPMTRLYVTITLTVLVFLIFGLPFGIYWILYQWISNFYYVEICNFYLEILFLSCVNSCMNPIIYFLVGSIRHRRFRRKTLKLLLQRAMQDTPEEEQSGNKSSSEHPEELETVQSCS
Protocol: 1321N1 Astrocytoma cells were purchased from Sigma Aldrich-Merck KGaA (Darmstadt, Germany, 86030402). The cells were transfected with MRGPRB2 using lentiviral transfection. 1.5 × 10^6 Lenti-X 293 T cells were seeded into each T25 cell culture flask in 5 mL of DMEM, supplemented with 10% FCS, 100 U/mL of penicillin and 100 µg/mL of streptomycin. After 20 h of incubation at 37°C and 5% CO2, when the cells were grown to 80–90% confluence, the medium was exchanged for 5 mL DMEM with 10% FCS without antibiotics and incubated for 4 h. Subsequently, transfection took place using Xfect polymer according to the manufacturer’s protocol (Clontech, Takara Bio Europe, France). The pLVX MRGPRB2-IRES-mCherry-Xfect mixture was added to the packaging cells and they were incubated overnight. […] To know how many astrocytoma cells expressed the target receptor, cells were analyzed under the fluorescence microscope at the m-cherry excitation wavelength of 587 nm using its emission wavelength of 610 nm. Subsequently, fluorescent single clones were isolated by fluorescence-activated cell sorting.
(§1) […]. […] For the determination of baseline fluorescence, HBSS buffer without additives was used. […]

[22] = biological target: T1, MRGPRX2; test: calcium mobilization assay, LN229 cells recombinantly expressing MRGPRX2; assay type: cell-based; conditions: Fluo-4, means ± SD of 3 to 4 independent experiments in duplicates, read-out: EC50 ± SD, calcium mobilization assays
Protocol: LN229 glioblastoma cells ATCC®, CRL-2611TM, were a kind gift from Prof. Dr. B. Scheffler (University of Bonn, Germany). LN229 cells stably expressing MRGPRX2 were generated by retroviral transfection. Briefly, GP^+envAM-12 packaging cells (LGC Standards GmbH, Wesel, Germany), derived from mouse fibroblasts, were seeded at a density of 1.5 × 10^6 cells per T25-flask in 5 mL of Dulbecco’s Modified Eagle Medium (DMEM, Thermo Fisher Scientific, Waltham, MA, USA), supplemented with 10% fetal calf serum (FCS), 100 U/mL of penicillin (PAN-Biotech) and 100 µg/mL of streptomycin (PAN-Biotech). Packaging cells were transfected with pLXSN-MRGPRX2 and pcDNA3-VSV-G using Lipofectamine 2000 according to the manufacturer’s instructions (Thermo Fisher Scientific, Darmstadt, Germany). The medium was exchanged for DMEM supplemented with 10% FCS, 100 U/mL of penicillin, 100 µg/mL of streptomycin and 3 mM of sodium butyrate (stock solution: 500 mM in water, sterile-filtered) to enhance virus production. To produce retroviral particles, cells were cultivated for 48 h at 32°C and 5% CO2. On day 4, the target cells LN229 were seeded into T25 cell culture flasks (5 × 10^5 cell). […]
as §1

[23] = biological target: T1, MRGPRX2; test: calcium mobilization assay, CHEM-1 cells recombinantly expressing MRGPRX2; assay type: cell-based; set-up: host or cells: CHEM-1 adherent rat hematopoietic cells; conditions: for pEC50: Fig. 3d
Description: To confirm the initial results obtained in the β-arrestin recruitment assays, we established calcium mobilization assays in two different recombinant cell lines, CHEM-1 and LN229 cells, respectively. CHEM-1 cells are adherent rat hematopoietic cells with a high endogenous expression level of the promiscuous Gα15 protein enabling the measuring of calcium signaling of a large variety of GPCRs. […]. Subsequently, we employed recombinant human glioblastoma LN229 cells, a human cell line derived from glioblastoma multiforme tumors. […].
The cell lines CHEM1 and CHEM1-MRGPRX2 are adherent rat cell lines (HTSCHEM-1RTA, HTS058RTA, Merck-Millipore, Darmstadt, Germany); which were cultured under standard cell culture conditions.
A cell-based fluorometric assay was employed for the determination of intracellular calcium release using Fluo-8. Cells were seeded into microtiter plates and incubated under standard cell culture conditions. After 24 h the medium was removed, and the cells were washed with phosphate-buffered saline (PBS). The cells were incubated with loading buffer (40 ml PBS with 2 mM Ca^2+, 800 µl of brilliant black solution (2%), 732 µl of probenecid solution (0.5 M) in 1 N NaOH, 400 µL of pluronic (10%) in water, and 152 µl of Fluo-8 (5.7 ng/ml in water)) for 30 min. For fluorescence readout and compound testing a FLIPR tetra system was used according to the manufacture’s protocol (Molecular Devices, CA 94089- 1136, USA).

LTB4R, sequence (Q15722 whole entry): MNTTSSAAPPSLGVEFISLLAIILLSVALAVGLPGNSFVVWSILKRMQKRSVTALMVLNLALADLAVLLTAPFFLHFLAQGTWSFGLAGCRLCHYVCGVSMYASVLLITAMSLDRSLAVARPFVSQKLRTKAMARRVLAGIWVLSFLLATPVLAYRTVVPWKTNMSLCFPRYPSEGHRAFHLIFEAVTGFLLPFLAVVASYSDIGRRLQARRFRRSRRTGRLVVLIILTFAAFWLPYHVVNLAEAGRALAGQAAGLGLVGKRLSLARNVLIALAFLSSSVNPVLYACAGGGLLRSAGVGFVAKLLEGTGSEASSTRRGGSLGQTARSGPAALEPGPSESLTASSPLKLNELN
HTR5A, sequence (P47898 whole entry): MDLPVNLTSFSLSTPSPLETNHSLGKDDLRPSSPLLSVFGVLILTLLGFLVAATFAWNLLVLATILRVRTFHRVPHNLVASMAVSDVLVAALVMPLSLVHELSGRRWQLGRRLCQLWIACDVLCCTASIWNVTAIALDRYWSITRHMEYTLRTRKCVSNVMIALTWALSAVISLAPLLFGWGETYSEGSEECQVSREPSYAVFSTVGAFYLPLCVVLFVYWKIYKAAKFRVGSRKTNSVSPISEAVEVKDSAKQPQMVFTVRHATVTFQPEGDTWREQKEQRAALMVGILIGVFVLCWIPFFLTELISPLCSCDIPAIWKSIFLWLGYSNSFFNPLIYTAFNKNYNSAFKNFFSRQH

## CCCCC/C=C\C[C@@H](O)/C=C/C=C/C=C\[C@@H](O)CCCC(=O)O [Leukotriene B4]
[1]
  EC80: 5000 nM

## NCCc1c[nH]c2ccc(O)cc12 [Serotonin]
[2]
  EC80: 630 nM
[3]
  EC80: 7700 nM
[4]
  EC80: 7100 nM
[5]
  EC80: 6600 nM
[6]
  EC80: 1300 nM

## Angiotensin II
[7]
  EC80: 150 nM

## CXCL4: chemokine, also known as platelet factor 4
[8]
  EC50: 9000 nM

## Cortistatin-14
[9]
  EC80: 8100 nM

## Melanotan II
[10]
  EC80: 37 nM
[11]
  EC80: 340 nM
[12]
  EC80: 30 nM

## Motilin
[13]
  EC80: 110 nM

## Neuromedin U-25
[14]
  EC80: 92 nM

B1: CXC motif chemokine 14 (CXCL14) (ligand)
chain: SKCKCSRKGPKIRYSDVKKLEMKPKYPHCEEKMVIITTKSVSRYRGQEHCLHPKLQSTKRFIKWYNAWNEKRRVYEE
[15]
  EC50, calcium mobilization, 1321N1 astrocytoma cells stably expressing MRGPRB2 (no response in non-transfected cells): 972 nM
[16]
  EC50, β-arrestin recruitment, β-arrestin-CHO cells recombinantly expressing MRGPRX2: 905 nM
[17]
  EC50, activation of MRGPRB2 as repeated in the discussion: 923 nM
[18]
  EC50, calcium mobilization, LN229 cells recombinantly expressing MRGPRX2 (no activation in non-transfected LN229 cells): 504 nM
[19]
  EC50, calcium mobilization, CHEM-1 cells recombinantly expressing MRGPRX2 (no response in the parental CHEM1 cell line): 889 nM

B2: CXCL14: mature 77-amino acid chemokine, 9.4 kDa, also known as BRAK; purchased from BIOZOL (protein)
chain: SKCKCSRKGPKIRYSDVKKLEMKPKYPHCEEKMVIITTKSVSRYRGQEHCLHPKLQSTKRFIKWYNAWNEKRRVYEE
modifications: two disulfide bonds (native chemokine fold); entity numbering = mature + 1
[20]
  EC50: 905 ± 548 nM
[21]; Fig. 6c source data, mean, SD and N in columns beside it (N = 2-3)
  pEC50 MRGPRB2: 6.032
[21]; Fig. 6c, mean as listed in the unpaired t test with Welch correction, MRGPRX2 vs. MRGPRB2
  Mean of MRGPRB2 (pEC50): 6.03
[22]
  EC50: 504 nM
[23]; CHEM-1 cells recombinantly expressing MRGPRX2, Fluo-8, FLIPR, read-out: EC50, calcium mobilization assays
  EC50: 889 nM
[23]; replicate column 1
  pEC50: 5.955
[23]; replicate column 2
  pEC50: 6.033
[23]; replicate column 3
  pEC50: 6.061
[23]; replicate column 4
  pEC50: 6.051
